Test results taken from article PMC6199744, “Development of Chemical Proteomics for the Folateome and Analysis of the Kinetoplastid Folateome” (ACS Infectious Diseases, 2018).
Like-named read-outs stand apart in the source and are kept apart here.

Columns and labels:
Type in all cases: binding
[1] = molecular target: T1, HeLa cell extract proteins (Homo sapiens, UniProt P55084)
T1 construct: endogenous in cells; host or cells: HeLa cell extract
T1 sequence (P55084 34-474): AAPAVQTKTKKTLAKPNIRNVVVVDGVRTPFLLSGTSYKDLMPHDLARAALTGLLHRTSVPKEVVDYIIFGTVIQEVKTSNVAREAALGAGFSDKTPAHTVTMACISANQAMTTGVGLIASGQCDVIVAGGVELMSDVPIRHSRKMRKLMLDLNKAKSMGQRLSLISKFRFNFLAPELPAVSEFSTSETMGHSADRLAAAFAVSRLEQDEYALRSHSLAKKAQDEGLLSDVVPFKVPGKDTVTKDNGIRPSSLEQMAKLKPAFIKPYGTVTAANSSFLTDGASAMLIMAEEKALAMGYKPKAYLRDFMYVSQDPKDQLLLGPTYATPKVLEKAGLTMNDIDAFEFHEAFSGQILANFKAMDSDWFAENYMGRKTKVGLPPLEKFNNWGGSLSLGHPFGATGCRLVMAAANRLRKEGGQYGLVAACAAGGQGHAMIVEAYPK

[2] = molecular target: T2, HeLa cell extract proteins (Homo sapiens, UniProt Q8NB46)
T2 construct: endogenous in cells; host or cells: HeLa cell extract
T2 sequence (Q8NB46 1-1076): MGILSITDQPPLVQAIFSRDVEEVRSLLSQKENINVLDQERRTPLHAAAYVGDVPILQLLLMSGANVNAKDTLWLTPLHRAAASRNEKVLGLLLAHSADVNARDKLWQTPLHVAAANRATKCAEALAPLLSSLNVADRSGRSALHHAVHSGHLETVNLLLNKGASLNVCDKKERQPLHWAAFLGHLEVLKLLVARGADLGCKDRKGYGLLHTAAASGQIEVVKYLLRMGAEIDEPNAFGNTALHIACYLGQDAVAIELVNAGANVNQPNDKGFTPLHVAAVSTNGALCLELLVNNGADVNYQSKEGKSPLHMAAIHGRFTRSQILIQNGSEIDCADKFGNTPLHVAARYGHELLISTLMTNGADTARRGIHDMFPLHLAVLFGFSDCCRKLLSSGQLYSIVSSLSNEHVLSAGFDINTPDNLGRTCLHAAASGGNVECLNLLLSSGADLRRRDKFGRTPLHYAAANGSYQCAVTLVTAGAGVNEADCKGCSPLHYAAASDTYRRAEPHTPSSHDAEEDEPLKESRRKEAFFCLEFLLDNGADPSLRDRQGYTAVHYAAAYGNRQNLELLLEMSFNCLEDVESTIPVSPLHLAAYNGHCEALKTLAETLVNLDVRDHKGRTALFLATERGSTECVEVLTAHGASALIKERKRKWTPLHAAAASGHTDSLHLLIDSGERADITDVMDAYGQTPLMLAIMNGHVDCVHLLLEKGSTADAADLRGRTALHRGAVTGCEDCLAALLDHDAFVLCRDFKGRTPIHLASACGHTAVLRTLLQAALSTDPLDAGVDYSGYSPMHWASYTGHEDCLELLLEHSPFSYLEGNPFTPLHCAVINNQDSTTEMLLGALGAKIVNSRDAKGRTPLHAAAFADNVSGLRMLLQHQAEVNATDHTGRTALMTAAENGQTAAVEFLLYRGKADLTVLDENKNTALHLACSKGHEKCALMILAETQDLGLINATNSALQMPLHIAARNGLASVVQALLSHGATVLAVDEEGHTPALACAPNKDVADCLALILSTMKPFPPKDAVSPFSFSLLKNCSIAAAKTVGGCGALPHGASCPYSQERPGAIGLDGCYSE

[3] = molecular target: T3, HeLa cell extract proteins (Homo sapiens, UniProt P30049)
T3 construct: endogenous in cells; host or cells: HeLa cell extract
T3 sequence (P30049 23-168): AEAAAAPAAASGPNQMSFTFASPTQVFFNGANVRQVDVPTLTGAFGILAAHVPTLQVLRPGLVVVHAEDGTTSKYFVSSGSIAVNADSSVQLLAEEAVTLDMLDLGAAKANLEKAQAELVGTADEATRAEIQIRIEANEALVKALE

[4] = molecular target: T4, HeLa cell extract proteins (Homo sapiens, UniProt O95817)
T4 construct: endogenous in cells; host or cells: HeLa cell extract
T4 sequence (O95817 whole entry): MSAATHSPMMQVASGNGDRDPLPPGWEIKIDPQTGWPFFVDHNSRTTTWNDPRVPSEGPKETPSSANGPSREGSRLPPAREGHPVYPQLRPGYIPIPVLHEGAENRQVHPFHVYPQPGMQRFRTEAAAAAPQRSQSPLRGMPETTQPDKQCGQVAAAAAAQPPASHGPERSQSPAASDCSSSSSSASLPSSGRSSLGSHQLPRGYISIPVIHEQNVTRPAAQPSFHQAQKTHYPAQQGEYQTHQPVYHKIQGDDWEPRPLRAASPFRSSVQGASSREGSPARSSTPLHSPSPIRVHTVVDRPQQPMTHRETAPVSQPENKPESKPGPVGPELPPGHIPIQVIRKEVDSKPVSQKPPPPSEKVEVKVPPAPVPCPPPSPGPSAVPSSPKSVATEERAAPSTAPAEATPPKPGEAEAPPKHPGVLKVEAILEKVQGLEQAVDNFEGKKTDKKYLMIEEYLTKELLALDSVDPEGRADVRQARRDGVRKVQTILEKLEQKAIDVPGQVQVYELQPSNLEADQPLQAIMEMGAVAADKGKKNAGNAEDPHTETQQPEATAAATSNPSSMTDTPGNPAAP

[5] = molecular target: T5, HeLa cell extract proteins (Homo sapiens, UniProt Q8N0W3); conditions: protein FUK; HeLa
T5 construct: endogenous in cells; host or cells: HeLa cell extract
T5 sequence (Q8N0W3 1-1084): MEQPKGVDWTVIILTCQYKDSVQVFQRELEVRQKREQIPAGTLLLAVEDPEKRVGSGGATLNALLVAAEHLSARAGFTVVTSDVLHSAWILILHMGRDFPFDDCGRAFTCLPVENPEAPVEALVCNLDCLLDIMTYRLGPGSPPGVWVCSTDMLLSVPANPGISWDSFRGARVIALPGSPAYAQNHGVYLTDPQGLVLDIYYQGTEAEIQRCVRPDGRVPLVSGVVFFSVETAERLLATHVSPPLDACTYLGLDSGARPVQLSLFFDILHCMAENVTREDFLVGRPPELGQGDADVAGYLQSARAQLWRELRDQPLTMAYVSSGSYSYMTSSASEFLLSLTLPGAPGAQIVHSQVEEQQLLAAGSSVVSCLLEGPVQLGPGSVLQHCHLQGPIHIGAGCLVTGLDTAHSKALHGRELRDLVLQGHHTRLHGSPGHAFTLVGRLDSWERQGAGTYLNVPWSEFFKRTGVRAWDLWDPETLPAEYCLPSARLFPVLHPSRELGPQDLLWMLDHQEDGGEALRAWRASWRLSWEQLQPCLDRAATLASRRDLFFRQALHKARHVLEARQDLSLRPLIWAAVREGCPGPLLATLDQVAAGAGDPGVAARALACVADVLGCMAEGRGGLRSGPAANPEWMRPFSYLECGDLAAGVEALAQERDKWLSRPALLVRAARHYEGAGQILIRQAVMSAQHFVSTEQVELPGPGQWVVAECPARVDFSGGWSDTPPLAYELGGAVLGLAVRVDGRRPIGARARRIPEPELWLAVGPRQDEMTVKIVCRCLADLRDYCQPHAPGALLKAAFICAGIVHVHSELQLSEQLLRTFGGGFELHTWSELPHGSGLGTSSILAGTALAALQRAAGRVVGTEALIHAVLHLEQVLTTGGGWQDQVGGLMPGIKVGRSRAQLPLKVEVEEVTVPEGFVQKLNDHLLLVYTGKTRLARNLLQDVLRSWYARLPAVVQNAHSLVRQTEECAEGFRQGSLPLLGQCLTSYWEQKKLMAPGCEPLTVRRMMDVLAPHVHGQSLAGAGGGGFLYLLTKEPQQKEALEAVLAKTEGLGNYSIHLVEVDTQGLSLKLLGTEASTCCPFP

[6] = molecular target: T6, HeLa cell extract proteins (Homo sapiens, UniProt O00483); conditions: captured protein NDUFA4; HeLa
T6 construct: endogenous in cells; host or cells: HeLa cell extract
T6 sequence (O00483 whole entry): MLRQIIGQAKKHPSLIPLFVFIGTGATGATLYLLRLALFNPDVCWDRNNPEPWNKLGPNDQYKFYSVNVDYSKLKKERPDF

[7] = molecular target: T7, HeLa cell extract proteins (Homo sapiens, UniProt O95433); conditions: protein AHSA1; HeLa
T7 construct: endogenous in cells; host or cells: HeLa cell extract
T7 sequence (O95433 whole entry): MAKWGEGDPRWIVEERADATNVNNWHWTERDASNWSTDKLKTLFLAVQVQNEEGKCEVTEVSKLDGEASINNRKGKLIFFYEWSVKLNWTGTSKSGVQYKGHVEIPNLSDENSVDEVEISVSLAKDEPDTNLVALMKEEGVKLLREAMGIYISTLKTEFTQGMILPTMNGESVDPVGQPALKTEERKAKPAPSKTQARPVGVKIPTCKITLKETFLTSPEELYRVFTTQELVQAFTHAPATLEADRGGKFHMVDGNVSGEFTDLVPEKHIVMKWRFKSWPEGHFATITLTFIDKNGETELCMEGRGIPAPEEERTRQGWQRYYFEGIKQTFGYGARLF

In the case of `Nc1nc2c(c(=O)[nH]1)N(C=O)C(CNc1ccc(C(=O)N[C@@H](CCC(=O)O)C(=O)O)cc1)CN2` (stereo partly shown) [LEU, leucovorin], the “fold changes relative to vehicle control” value ([1]; HeLa, protein HADHB) is reported as 0.85, the “fold changes relative to vehicle control” value ([2]; HeLa, protein ANKRD52) is reported as 0.89 and the “fold changes relative to vehicle control” value ([3]; protein ATP5D, HeLa) is reported as 0.85. For the same compound, the “fold changes relative to vehicle control” value ([4]; HeLa, protein BAG3) was 0.91.
In the case of `NCCCNc1ccc(C(=O)NC(CCC(=O)O)C(=O)O)cc1` (stereo not shown) [compound 7], the “fold changes relative to vehicle control” value ([1]; HeLa, protein HADHB) is reported as 1.04, the “fold changes relative to vehicle control” value ([2]; HeLa, protein ANKRD52) is reported as 1.03 and the “fold changes relative to vehicle control” value ([3]; protein ATP5D, HeLa) is reported as 1.2. For the same compound, the “fold changes relative to vehicle control” value ([4]; HeLa, protein BAG3) was 0.89.
In the case of `CCCCCCOc1cccc(Cc2cnc(N)nc2N)c1` [compound 2], the “fold changes relative to vehicle control” value [5] is reported as 1.11, the “fold changes relative to vehicle control” value [6] is reported as 1.17 and the “fold changes relative to vehicle control” value [7] is reported as 1.63.
In the case of `CCCCCCOc1ccc(Cc2cnc(N)nc2N)cc1` [compound 1], the “fold changes relative to vehicle control” value [5] is reported as 0.96, the “fold changes relative to vehicle control” value [6] is reported as 0.8 and the “fold changes relative to vehicle control” value [7] is reported as 1.17.
With `Nc1nc2cccc(-c3ccccc3)c2n1Cc1ccc(Cl)c(Cl)c1` [compound 3] the “fold changes relative to vehicle control” value [5] was 1.07, the “fold changes relative to vehicle control” value [6] was 0.82 and the “fold changes relative to vehicle control” value [7] was 1.24.
In the case of `NCCOCCOCC(=O)Nc1nc2ncc(CNc3ccc(C(=O)NC(CCC(=O)O)C(=O)O)cc3)nc2c(=O)[nH]1` (stereo not shown) [compound 6], the “fold changes relative to vehicle control” value ([1]; HeLa, protein HADHB) is reported as 1.12, the “fold changes relative to vehicle control” value ([2]; HeLa, protein ANKRD52) is reported as 1.06 and the “fold changes relative to vehicle control” value ([3]; protein ATP5D, HeLa) is reported as 1.17. The “fold changes relative to vehicle control” value ([4]; HeLa, protein BAG3) was 1.17.
`Nc1nc2[nH]cc(CCc3ccc(C(=O)N[C@@H](CCC(=O)O)C(=O)O)cc3)c2c(=O)[nH]1` [PTX, pemetrexed] was tested, and the “fold changes relative to vehicle control” value [1] was 0.94, the “fold changes relative to vehicle control” value [2] was 1.01 and the “fold changes relative to vehicle control” value [3] was 1.14. The “fold changes relative to vehicle control” value [4] was 0.96.
